Source: US20260015574A1, “METHODS FOR SHORTENING LAG PHASE DURATION IN MICROORGANISMS” (YEDA RESEARCH AND DEVELOPMENT CO. LTD., priority 2022, published 2026)

Key:
[1] = tested on: P. inhibens; assay: Imaging flow cytometry of bacterial populations during the lag phase; format: cell-based, Phaeobacter inhibens; conditions: DMSP-treated cultures
Description: The bacterial strain Phaeobacter inhibens DSM 17395 was purchased from the German collection of microorganisms and cell cultures (DSMZ, Braunschweig, Germany) and stored at −80° C. with 20% glycerol. Routine cultivation of P. inhibens was conducted at 30° C. in artificial seawater medium (ASW) based on Goyet and Poisson (1989). […] A 96-well Tecan Infinite M Plex plate reader was used for high-resolution monitoring of bacterial growth dynamics at 30° C. […] The growth of bacteria in co-culture with algae was monitored by counting colony forming units (CFU) on ½ YTSS agar plates. The growth of algae was monitored with a CellStream flow cytometer (Merck, Darmstadt, Germany).
To reflect the natural low bacterial abundance in the oligotrophic ocean with low microalgal productivity, the current bacterial growth experiments were routinely initiated with an optical density (OD) of 0.00001. […] To determine the actual length of the lag phase, the inventors analyzed bacterial cultures using imagining flow cytometry. […]

[2] = tested on: P. inhibens dmdA KO mutant; assay: Lag phase shortening in dmdA knockout mutant; format: cell-based, Phaeobacter inhibens
Description: For creation of P. inhibens knockout cells, ˜1,000 bp regions upstream and downstream of the gene of interest were amplified by PCR (Phusion High-Fidelity DNA polymerase, Thermo Scientific), using primers that added homologous regions to gentamycin or kanamycin resistance markers. The fragments were assembled and cloned into the TOPOII vector (Invitrogen) using restriction-free cloning (Peleg Y. & Unger T., 2014), generating a knockout (KO) plasmid. P. inhibens electrocompetent cells (300 μl) were transformed with 10 μg of the constructed KO plasmid by a pulse of 1.8 kV (Bio Rad). Cells were selected on ½YTSS agar plates containing 30 μg/ml gentamycin or 150 μg/ml kanamycin. Successful knockouts in single cell clones were verified by PCR and sanger sequencing.
The inventors further sought to better understand why methyl groups shorten the bacterial lag phase. The inventors list at least three cellular scenarios which could explain the effect that methylated compounds have on the lag phase: (1) methyl groups might be a limiting resource; (2) methyl groups might act as a signal that triggers a cellular cascade, which culminates in lag phase shortening; and (3) methylated compounds could accumulate intracellularly and function as osmoprotectants and antioxidants. […]

[3] = tested on: Various marine bacteria; assay: Lag phase shortening in various marine bacteria; format: cell-based; conditions: minute amounts of compound
Description: The bacterial strain Phaeobacter inhibens DSM 17395 was purchased from the German collection of microorganisms and cell cultures (DSMZ, Braunschweig, Germany) and stored at −80° C. with 20% glycerol. Routine cultivation of P. inhibens was conducted at 30° C. in artificial seawater medium (ASW) based on Goyet and Poisson (1989). The ASW medium contained mineral salts (NaCl, 409.41 mM; Na2SO4, 28.22 mM; KCl, 9.08 mM; KBr, 0.82 mM; NaF, 0.07 mM; Na2CO3, 0.20 mM; NaHCO3, 2 mM; MgCl2, 50.66 mM; SrCl2, 0.09 mM), L1 vitamins (thiamine HCl, 100 μg/L; biotin, 0.5 μg/L; vitamin B12, […]), L1 trace elements (Na2EDTA·2H2O, 4.36 mg/L; FeCl3·6H2O, 3.15 mg/L; MnCl2·4H2O, 178.1 μg/L; ZnSO4·7H2O, 23.0 μg/L; CoCl2·6H2O, 11.9 μg/L; CuSO4·5H2O, 2.5 μg/L; Na2MoO4·2H2O, 19.9 μg/L; H2SeO3, 1.29 μg/L; NiSO4·6H2O, 2.63 μg/L; Na3 VO4, 1.84 μg/L; K2CrO4, 1.94 μg/L), and L1 nutrients (NaNO3, 882 μM; NaH2PO4, 36.22 μM). ASW was adjusted to pH 8 using HCl. […] A 96-well Tecan Infinite M Plex plate reader was used for high-resolution monitoring of bacterial growth dynamics at 30° C. […] The growth of bacteria in co-culture with algae was monitored by counting colony forming units (CFU) on ½ YTSS agar plates. The growth of algae was monitored with a CellStream flow cytometer (Merck, Darmstadt, Germany). […]

Structure (SMILES): C[S+](C)CCC(=O)[O-] [DMSP, dimethylsulfoniopropionate]
- time at which transition from aggregates to single-celled bacteria is concluded [1]: 3 h
- lag phase shortening [2]: does not shorten the lag phase
- lag phase shortening [3]: marked lag phase shortening
